The values that follow come from ChEMBL document CHEMBL4371066, “Synthesis and characterization of a photoresponsive doxorubicin/combretastatin A4 hybrid prodrug” (Bioorg Med Chem Lett, 2019).

Molecules are shown by their SMILES. Activity calls are given as the source filed them. The calls are words filed in the database; no cut-off is given here.

Type in all cases: functional, cell-based
The subject of experiment [1] is MDA-MB-231. Put plainly: Phototoxicity against human MDA-MB-231 cells assessed as reduction in cell viability at 4 to 8 uM irradiated with 50 mW cm'-2 UV light for 6 mins and measured after 24 hrs by CCK8 assay.
Experiment [2] concerns MDA-MB-231. Put plainly: Cytotoxicity against human MDA-MB-231 cells assessed as reduction in cell viability at 4 to 8 uM measured after 24 hrs by CCK8 assay.
Experiment [3] deals with MDA-MB-231. Put plainly: Phototoxicity against human MDA-MB-231 cells assessed as reduction in cell viability at 2 to 8 uM irradiated with 50 mW cm'-2 UV light for 6 mins and measured after 24 hrs by CCK8 assay.
Experiment [4] concerns MDA-MB-231. Kind of experiment: Cytotoxicity against human MDA-MB-231 cells assessed as reduction in cell viability at 2 to 8 uM measured after 24 hrs by CCK8 assay.

`COc1cccc2c1C(=O)c1c(O)c3c(c(O)c1C2=O)C[C@@](O)(C(=O)CO)C[C@@H]3O[C@H]1C[C@H](N)[C@H](O)[C@H](C)O1`: the result in experiment [1] and in experiment [2] was Active.

As for `COc1ccc(/C=C\c2cc(OC)c(OC)c(OC)c2)cc1O`, the outcome in experiment [3] and in experiment [4] was Active.
